In series [1] the test system is OC[C@H]1OC(O)[C@H](O)[C@@H](O)[C@@H]1O. The series can be described thus: purified protein, by the assay type. Particulars: other: BotGLD, D-glucose varied, Hanes-Woolf plot, DCIP/1-m-PMS, pH 6.0, 37° C.
Method: (§3) Each solution was mixed according to the following procedures to measure the absorbance, thereby examining GLD activity.
(§4) Then, 0.05 mL of an enzyme sample was added to the mixture to start a reaction. The amount (ΔA600) of reduction in light absorbance per minute at 600 nm along with the progress of the enzymatic reaction was measured for 5 minutes from the start of the reaction to calculate GLD activity from the straight line part according to the equation 1. At this time, in the measurement of GLD activity, the amount of an enzyme reducing 1 μmol of DCIP at 37° C. and a pH of 6.0 for one minute was defined as 1 U.
(§5) In the above formula, 3.0 represents the amount (mL) of reaction reagent+oxygen solution, 10.8 represents the molar absorption coefficient (mM^−1 cm^−1) of DCIP at a pH of 6.0, 1.0 represents the optical path length (cm) of a cell, 0.05 represents the amount (mL) of the oxygen solution, ΔA600 blank represents a reduction in the amount of light absorbance per minute at 600 nm when the solution used to dilute the enzyme is added in place of the enzyme solution to start a reaction, and df represents a dilution ratio.
Series [2] concerns Ciborinia camelliae NBRC103663 flavin-binding glucose dehydrogenase CiGLD (F), purified from A. oryzae NS4 with CiGLD-Atsig modified gene, SEQ ID NO: …. The following applies: read-out: Km value, D-glucose varied, Hanes-Woolf plot, DCIP/1-m-PMS, pH 6.0, 37° C.
Method: as §3, §4, §5
Among the eluted protein, an active fraction was concentrated and desalted to obtain a purified enzyme of GLD derived from the genus Ciborinia substituted with water.
Series [3] has as its system Botrytis fabae NBRC7171 flavin-binding glucose dehydrogenase BoGLD (D), purified, wild type. Particulars: read-out: Km value, D-glucose varied, Hanes-Woolf plot, DCIP/1-m-PMS, pH 6.0, 37° C. The source says:
The transmitted active fraction was combined with the active fraction eluted after adsorbed and these fractions were concentrated and dialyzed against the buffer solution C3.

Series [4] deals with Ovulinia azaleae NBRC6610 flavin-binding glucose dehydrogenase OvGLD (B), purified, wild type, SEQ ID NO: 6 (without signal sequence SEQ ID NO: 14). The following applies: read-out: Km value, D-glucose varied, Hanes-Woolf plot, DCIP/1-m-PMS, pH 6.0, 37° C.
Method: as §3, §4, §5
Series [5] relates to Sclerotinia sclerotiorum NBRC103652 flavin-binding glucose dehydrogenase ScGLD (C), purified, wild type. The series can be described thus: Km value to D-glucose (Hanes-Woolf plot), ScGLD. The series is classed as biochemical. The following applies: D-glucose varied, DCIP/1-m-PMS, pH 6.0, 37° C. On the procedure:
(§1) After the column was washed with the buffer solution C2, a protein was eluted with linear gradient of a buffer solution D3 (500 mM potassium phosphate buffer solution, pH 7.0) in the buffer solution C2.

Series [6] has as its system Botrytis fabae NBRC7171 flavin-binding glucose dehydrogenase BoGLD (D), purified, wild type. The experiment in a line: Inhibitive effect of 1,10-phenanthroline, BoGLD. The following applies: methanol only = 0%. The class given is biochemical. On the procedure:
(§2) The enzymatic activity of each of the purified GLDs (A) to (F) was measured when 1,10-phenanethroline dissolved in methanol was added such that its final concentration was 2 mM, 5 mM or 10 mM in the above method for measuring enzymatic activity. The inhibitive effect obtained when only methanol was added was defined as 0% to find the inhibitive effect of 1,10-phenanthroline at each concentration. The obtained results are shown collectively as the inhibitive effect of 1,10-phenanthroline in Table 4.

In series [7] the test system is Ovulinia azaleae NBRC6610 flavin-binding glucose dehydrogenase OvGLD (B), purified, wild type, SEQ ID NO: 6 (without signal sequence SEQ ID NO: 14). The experiment in a line: Inhibitive effect of 1,10-phenanthroline, OvGLD. The series is classed as biochemical. Particulars: methanol only = 0%. On the procedure:
as §2

In series [8] the target is T1, Botrytis tulipae NBRC5896 flavin-binding glucose dehydrogenase BotGLD (E), purified from A. oryzae NS4 with BotGLD-Atsig modified gene, SEQ ID NO: 4 (without signal sequence SEQ ID NO: 12) (Botrytis tulipae, UniProt A0A4Z1FFJ6).
T1 construct: up to three extra N-terminal residues possible
T1 sequence (A0A4Z1FFJ6 17-589, added parts left off): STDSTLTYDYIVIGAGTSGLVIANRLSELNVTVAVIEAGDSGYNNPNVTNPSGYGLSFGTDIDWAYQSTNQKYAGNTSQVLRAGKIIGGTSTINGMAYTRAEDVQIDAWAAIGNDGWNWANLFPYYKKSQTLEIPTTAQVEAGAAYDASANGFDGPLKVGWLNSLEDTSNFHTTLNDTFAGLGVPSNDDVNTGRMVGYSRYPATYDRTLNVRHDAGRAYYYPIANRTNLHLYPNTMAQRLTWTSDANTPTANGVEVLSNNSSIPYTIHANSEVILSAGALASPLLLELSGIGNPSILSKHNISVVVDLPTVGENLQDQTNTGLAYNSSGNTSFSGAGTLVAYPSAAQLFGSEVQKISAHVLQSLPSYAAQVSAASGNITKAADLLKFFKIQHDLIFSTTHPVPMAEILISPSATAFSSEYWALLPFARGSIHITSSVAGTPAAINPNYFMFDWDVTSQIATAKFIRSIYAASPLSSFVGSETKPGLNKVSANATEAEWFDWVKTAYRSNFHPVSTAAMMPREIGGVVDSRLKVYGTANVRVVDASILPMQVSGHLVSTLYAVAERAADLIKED
The series can be described thus: Inhibitive effect of 1,10-phenanthroline, BotGLD. The series is classed as biochemical. The method, then: as §2

The subject of series [9] is Dumontinia tuberosa NBRC30254 flavin-binding glucose dehydrogenase DuGLD (A), purified, wild type, SEQ ID NO: 2 (without signal sequence SEQ ID NO: 10). The series can be described thus: Inhibitive effect of 1,10-phenanthroline, DuGLD. Particulars: methanol only = 0%. The series is classed as biochemical. On the procedure: as §2
The test system of series [10] is Ciborinia camelliae NBRC103663 flavin-binding glucose dehydrogenase CiGLD (F), purified from A. oryzae NS4 with CiGLD-Atsig modified gene, SEQ ID NO: …. The series can be described thus: Inhibitive effect of 1,10-phenanthroline, CiGLD. The following applies: methanol only = 0%. The class given is biochemical. On the procedure:
as §2

Series [11] has as its system Sclerotinia sclerotiorum NBRC103652 flavin-binding glucose dehydrogenase ScGLD (C), purified, wild type. The experiment in a line: Inhibitive effect of 1,10-phenanthroline, ScGLD. The series is classed as biochemical. Particulars: methanol only = 0%. The method, then: as §1, §2

Read-outs that look alike come from different tables or passages of the source.

For the compound “Botrytis tulipae NBRC5896 flavin-binding glucose dehydrogenase BotGLD (E), purified from A. oryzae NS4 with BotGLD-Atsig modified gene, SEQ ID NO: 4 (without signal sequence SEQ ID NO: 12) (Botrytis tulipae)”, in series [1], the Km is 36.2 mM.

Turning to `OC[C@H]1OC(O)[C@H](O)[C@@H](O)[C@@H]1O` (stereo partly drawn) [D-glucose], the Km in series [2] amounted to 5.44 mM; in series [3], 35 mM; in series [4], 22.8 mM; in series [5], 16.7 mM.

Regarding `c1cnc2c(c1)ccc1cccnc12` [1,10-phenanthroline], the Inhibitive effect in series [6] (final concentration 2 mM) came out at 10.4%; in [6] (final concentration 5 mM), 15.9%; in series [6] (final concentration 10 mM) it was 28.5%; in series [7] (final concentration 2 mM) it was 34.1%; in [7] (final concentration 5 mM), 51.7%; in series [7] (final concentration 10 mM) it was 65.1%. In addition, the Inhibitive effect in [9] (final concentration 2 mM) came out at 20.4%; in [9] (final concentration 5 mM), 30.1%; in [9] (final concentration 10 mM), 42.3%; in [10] (final concentration 2 mM), 6.34%; in [10] (final concentration 5 mM), 14.7%; in [10] (final concentration 10 mM), 32.7%. Also, the Inhibitive effect in series [11] (final concentration 2 mM) turned out to be 5.28%; in [11] (final concentration 5 mM), 18.4%; in [11] (final concentration 10 mM), 32.3%. Besides, the inhibition at 2000 µM in series [8] (BotGLD, final concentration 2 mM, methanol only = 0%, read-out: Inhibitive effect) was 33.5%; in series [8] (DuGLD, OvGLD and BotGLD together, 2 mM, read-out: Inhibitive effect (summary range)) it was 20 to 34%. The same compound showed an inhibition at 5000 µM in series [8] (BotGLD, final concentration 5 mM, methanol only = 0%) of 38.6%. The compound also returned an inhibition at 10000 µM in series [8] (BotGLD, final concentration 10 mM, methanol only = 0%) of 75.4%.

These data come from US8945359B2, “Flavin-binding glucose dehydrogenase” (Ikeda Food Research Co., Ltd., priority 2011, dated 2015).
